Reference: EP0194548A2, “Sulfonylaminoethyl compounds, medicines containing these compounds and process for their preparation” (Dr. Karl Thomae GmbH, priority 1985, dated 1986)

How the values were obtained:
[1] = tested on: Thrombozytenaggregation in plättchenreichem Plasma; assay: Collagen-induced platelet aggregation (method of BORN and GROSS) in platelet-rich plasma; assay type: cell-based, Versuchspersonen; conditions: 10 min, plasma incubated 10 min with substance at 37°C, 50% change of optical density
Description: Die Thrombozytenaggregation wird nach der Methode von BORN und GROSS (J. Physiol. 170, 397 (1964)) in plättchenreichem Plasma gesunder Versuchspersonen gemessen. Zur Gerinnungshemmung wird das Blut mit […] 3,14 % im Volumenverhältnis 1:10 versetzt
Collagen-induzierte Aggregation
Der Verlauf der Abnahme der optischen Dichte der Plättchensuspension wird nach Zugabe der aggregationsauslösenden Substanz photometrisch gemessen und registriert. Aus dem Neigungswinkel der Dichtekurve wird auf die Aggregationsgeschwindigkeit geschlossen. Der Punkt der Kurve, bei dem die größte Lichtdurchlässigkeit vorliegt, dient zur Berechnung der "optical dens^ity".
Die Collagen-Menge wird möglichst gering gewählt, aber doch so, daß sich eine irreversibel verlaufende Reaktionskurve ergibt. Verwendet wird das handelsübliche Collagen der Firma Hormonchemie, München.
Vor der Collagen-Zugabe wird das Plasma jeweils 10 Minuten mit der Substanz bei 37°C inkubiert.
Aus den erhaltenen Meßzahlen wird graphisch eine EC50 berechnet, die sich auf eine 50%ige Änderung der "optical density" im Sinne einer Aggregationshemmung bezieht.

Mäusen [2] = assay: Prolongation of bleeding time (tail tip cut) after oral dosing; assay type: in vivo; conditions: conscious mice, 10 mg/kg p.o., 1 hour after dosing, 5 animals per test, versus controls without substance
Method: Da im Falle einer Verletzung die erste rasche Blutstillung durch Thrombozyten geschieht, läßt sich beim Setzen einer standardisierten Verletzung die Funktion der Thrombozylen mit Hilfe der Messung der Blutungszeit gut bestimmen. Die normale Blutungszeit beträgt beim Menschen etwa 1 bis 3 min., setzt aber leistungsfähige und in genügender Zahl vorhandene Thrombozyten voraus. Bei einer normalen Thrombozytenzahl weist also eine verlängerte Blutungszeit auf eine gestörte Funktion der Thrombozyten hin. Wir finden dies z.B. bei einigen angeborenen Thrombozytenfunktionsstörungen. Will man auf der anderen Seite die Neigung zu spontanem Zusammenballen der Thrombozyten mit der Folge von Gefäßverschlüssen im arteriellen System durch Medikamente verhindern, so muß folglich bei einer erfolgreichen thrombozytenwirksamen Therapie die Blutungszeit unter Substanzeinfluß verlängert werden. Bei einer thrombozytenwirksamen Substanz ist also eine Verlängerung der Blutungszeit und - da das plasmatische Gerinnungssystem ja nicht berührt wird -eine normale Blutgerinnungszeit zu erwarten.
Zur Bestimmung der Blutungszeit wurden die zu untersuchenden Substanzen wachen Mäusen in einer Dosis von 10 mg/kg p.o. appliziert. Nach einer Stunde wurde von der Schwanzspitze jedes Tieres ca. 0,5 mm abgeschnitten und das austretende Blut in Abständen von 30 Sekunden bis zum Sistieren der Blutung vorsichtig mit einem Filterpapier abgetupft. Die Zahl der so erhaltenen Bluttropfen ergibt ein Maß für die Blutungszeit (5 Tiere pro Versuch). Die folgenden Zahlenangaben bedeuten Prozent-Verlängerung gegenüber Kontrollen ohne Substanzgabe: […]

Mäusen [3] = assay: Orientating acute toxicity after a single oral dose; assay type: in vivo; conditions: mice, groups of 10, observation time 14 days
Description: Die akute Toxizität der zu untersuchenden Substanzen wurde orientierend an Gruppen von je 10 Mäusen nach oraler Gabe einer Einzeldosis bestimmt (Beobachtungszeit 14 Tage): […]

O=C(O)CCC(=O)c1ccc(CCNS(=O)(=O)c2ccccc2)cc1 [Substanz F, 3-[4-(2-Benzolsulfonylamino-äthyl)-benzoyl]-propionsäure]
EC50 [1]: 3000 nM
Verlängerung der Blutungszeit in % nach 1 Stunde (Mäusen [2]): >266%
Orientierende akute Toxizität (Mäusen [3]; single oral dose 250 mg): 250 mg (0 von 10 Tieren gestorben)

COCCOC(=O)CCC(=O)c1ccc(CCNS(=O)(=O)c2ccccc2)cc1 [Substanz B, 3-[4-(2-Benzolsulfonylaminoäthyl)-benzoyl]-propionsäure-ß-methoxyäthylester]
EC50 [1]: > 10000 nM
Verlängerung der Blutungszeit in % nach 1 Stunde (Mäusen [2]): 110%
Orientierende akute Toxizität (Mäusen [3]; single oral dose 1.000 mg): 1.000 mg (0 von 10 Tieren gestorben)

Cc1ccc(S(=O)(=O)NCCc2ccc(C3=NNC(=O)CC3C)cc2)cc1 (stereo not drawn) [Substanz D, 6-[4-(2-(p-Toluolsulfonyl)-aminoäthyl)-phenyl]-5-methyl-4,5-dihydro-pyridazin-(2H)-3-on]
EC50 [1]: 2400 nM
Verlängerung der Blutungszeit in % nach 1 Stunde (Mäusen [2]): 187%
Orientierende akute Toxizität (Mäusen [3]; single oral dose 1.000 mg): 1.000 mg (0 von 10 Tieren gestorben)

O=C1CCC(c2ccc(CCNS(=O)(=O)c3ccccc3)cc2)=NN1 [Substanz C, 6-[4-(2-Benzoylsulfonylaminoäthyl)-phenyl]-4,5-dihydro-pyridazin-(2H)-3-on]
EC50 [1]: 3300 nM
Verlängerung der Blutungszeit in % nach 1 Stunde (Mäusen [2]): 145%
Orientierende akute Toxizität (Mäusen [3]; single oral dose 1.000 mg): 1.000 mg (0 von 10 Tieren gestorben)

O=C1CCC(c2ccc(OCCNS(=O)(=O)c3ccccc3)cc2)=NN1 [Substanz E, 6-[4-(2-Benzolsulfonylaminoäthoxy)-phenyl]-4,5-dihydro-pyridazin-(2H)-3-on]
EC50 [1]: 3000 nM
Verlängerung der Blutungszeit in % nach 1 Stunde (Mäusen [2]): 233%
Orientierende akute Toxizität (Mäusen [3]; single oral dose 1.000 mg): 1.000 mg (0 von 10 Tieren gestorben)

O=C(O)CCC(=O)c1ccc(CCNS(=O)(=O)c2ccc(Cl)cc2)cc1 [Substanz A, 3-[4-(2-(4-Chlorbenzolsulfonyl)-aminoäthyl)-benzoyl]-propionsäure]
EC50 [1]: 4000 nM
Verlängerung der Blutungszeit in % nach 1 Stunde (Mäusen [2]): 108%
Orientierende akute Toxizität (Mäusen [3]; single oral dose 1.000 mg): 1.000 mg (0 von 10 Tieren gestorben)
